Results from patent US20160367708A1, “COMPOSITIONS AND METHODS OF TREATING CANCER” (THE JOHNS HOPKINS UNIVERSITY, priority 2013, published 2016).

What was measured:
[1] = system: mouse BALB/c CRL2836 cell line or the human HeLa cell line; test: WST-1 cell proliferation assay, ^32P taken up from the medium versus ^32P held in tubes (electron bombardment only); type: cell-based; conditions: isotope added directly to the medium for 1 day, compared with isotope kept in tubes in the wells; followed up to six days
Description: FIG. 1. A cell proliferation assay using WST-1 was performed to assess the relative cell killing ability of ^32Pmonophosphate that is taken up by cells into the DNA versus that which is not taken up by the cells, but subjected only to electron bombardment.
Measurement of In Vitro Cell Killing by ^32P Radioisotope. Two thousand cells of the mouse BALB/c CRL2836 cell line or the human HeLa cell line were growing in complete medium in wells of a 96-well plate and were exposed to either 0 uCi, 3 uCi or 10 uCi of the [^32P]pyrophosphate or the [^32P]monophosphate radioisotopes. One set of triplicate wells contained medium with the designated form of the isotope, while another set of triplicate wells had the isotope contained in small tubes placed in the wells. […] After a 24 hour exposure time, fresh non-radioactive medium was added and WST-1 proliferation assays were done at several subsequent time points.
To assess the relative cell killing ability of [^32P]monophosphate that is taken up by cells into the DNA versus that of is not taken up by the cells, but subjected only to electron bombardment, a cell proliferation assay using WST-1 was undertaken (FIG. 1). […]

HeLa cell xenografts = conditions: applicants' earlier work, cited from earlier work; for inhibition of xenograft tumor growth: nude mice, single low-dose IV injection
[2] = system: BALB/c tumor CRL2836 cells; test: WST-1 cell proliferation assay, [^32P]PO4 versus ^90Y; type: cell-based, mouse
Description: (§1) FIG. 2. Inhibition of cell growth by [^32P]PO4 or [^90Y]. The WST-1 proliferation assay was done to determine the level of cell kill by ^32P or by ^90Y. BALB/c tumor CRL2836 cells or HeLa cells were exposed to 0 Ci, 1 μCi, 2.5 μCi, or 5 μCi in complete medium. After 24 hours, the radioactivity was removed and cells were grown in non-radioactive complete medium. WST-1 cell proliferation assays were done at Days 1, 2, 3, 4, and 5 and all assays were done in triplicate. The mean is shown plus/minus the standard deviation. The student's two-sided t-test determined the P value shown.
(§2) Measurement of in vitro cell killing by ^32P and ^90Y. Two thousand cells of the mouse BALB/c CRL2836 cell line or the human HeLa cell line were grown in complete medium in a 96-well plate and at Day 0 were exposed to either 0, 1, 2.5, or 5 μCi of ^90Y radioisotope or the [^32P]PO4 radioisotope in complete medium. After a 24 h incubation, the radioisotope-containing medium was removed and replaced with non-radioactive complete medium (Day 1). […]
(§3) Statistical analysis. The data from the WST-1 cell proliferation are presented as means±standard deviation and the significance was determined using the unpaired Student's t test. […] The significance was determined using the unpaired Student's t test.

HeLa cells [3] = test: H2AX immunostain assay of double-strand DNA breaks, ^32P versus ^90Y; type: cell-based, human; conditions: 3 μCi for 24 h, Day 1, 2 or 3
Description: FIG. 4. Determination of double-strand DNA breaks in cells caused by exposure to [^32P]PO4 or ^90Y. HeLa cells or mouse BALB/c CRL2836 cells were grown in multiple sections of chamber slides and exposed to 0 μCi or 3 μCi of [^32P]PO4 or ^90Y in complete medium at Day 0. After 24 hours, the radioactivity was removed and cells were grown in non-radioactive complete medium. At Day 1, 2, or 3 the presence of double-strand DNA breaks in the cells was determined by staining for phosphorylated H2-AX histones which indicate double-strand DNA damage.
Assessment of Double-Strand DNA Breaks by ^32P and ^90Y. Ten thousand HeLa cells were seeded in Lab-TekII chamber slides (Thermo Fisher Scientific Inc., Waltham, Mass.). At Day 0 cells were treated with 0 or 3 μCi of ^32P or ^90Y in complete medium. At Day 1, all wells were gently washed and fresh non-radioactive medium was added. At Day 1, Day 2, or Day 3, cells were fixed with 10% formalin at room temperature for 10 min, washed with PBS for two min, and permeabilized with 0.2% Triton X-100 with 10% FBS in PBS for 15 min. After a rinse with PBS, primary mouse anti-human H2AX antibody with 1:1000 dilution (Millipore, Billerica, Mass.) was incubated for 1 h at ambient temperature, and washed twice with PBS for 5 min. […]

HeLa cells [4] = test: WST-1 cell proliferation assay, [^32P]PO4 versus ^90Y; type: cell-based, human
Description: as §1, §2, §3

[5] = system: Syngeneic BALB/c CRL2836 tumors; test: ^32P-mediated tumor growth inhibition in syngeneic BALB/c mice; type: in vivo, mouse; conditions: for inhibition of established syngeneic tumor growth: single IV injection of 5 μCi ten days after tumor cell injection
From the text: FIG. 5. Inhibition of BALB/c syngeneic tumor growth by [^32P]PO4. Syngeneic BALB/c CRL2836 tumors were established in the rear flanks of BALB/c mice at Day 0. After ten days during which the tumors became well vascularized, mice received an injection of 5 μCi of [^32P]PO4 intra-venously via the tail vein. The tumor volumes are shown as the mean of six tumors plus/minus the standard error of the mean. The student's two-sided t-test determined the P value shown.
Establishment of mouse tumors. Syngeneic BALB/c mouse tumors were established by injecting 2×10^6 BALB/c tumor CRL2836 cells ([…], Manassas, Va.) in a volume of 0.2 mL (50% Matrigel, 50% 1×PBS) subcutaneously in the left rear and right rear flank. All mice were female, 10 weeks of age, and purchased from Charles River Laboratories (Wilmington, Mass.).
^32P-Mediated tumor growth inhibition. After ten days, during which time well-vascularized tumors were established, an injection of 5 μCi of the monophosphate form of ^32P (Perkin-Elmer, Cat. # NEX06000) was injected intravenously via the tail vein in 0.1 mL of 1×HBSS. Six tumors (three animals) were studied in each group. After injection, tumor growth was measured three times per week with a digital caliper and the volume was determined using the formula: volume=½(width)^2×(length).
Statistical analysis. The data from the WST-1 cell proliferation are presented as means±standard deviation and the significance was determined using the unpaired Student's t test. The tumor volumes of the untreated and treated mice are shown as means±SE and no outliers were excluded for any reason. The significance was determined using the unpaired Student's t test.

[6] = 24 h exposure to identical amounts of isotope

| Molecule | cell death as monitored by the lack of cell growth [1] | inhibition of xenograft tumor growth (HeLa cell xenografts) | detrimental effects (weight gain, general activity, overall health) (HeLa cell xenografts; xenografted nude mice) | survival rates at Day 5 relative to ^90Y ([2]; 2.5 μCi and 5 μCi doses, Day 5) | cell killing efficiency compared with ^90Y [2, 6] | double-strand DNA breakage (nuclear staining for phosphorylated H2AX) (HeLa cells [3]) | survival rates at Day 5 relative to ^90Y (HeLa cells [4]; 2.5 μCi and 5 μCi doses, Day 5) | cell killing efficiency compared with ^90Y (HeLa cells [4]; [6]) | effects on the health of the mice (weight gain, overall activity levels) ([5]; single IV injection of 5 μCi) | inhibition of established syngeneic tumor growth [5] | inhibition of established syngeneic tumor growth ([5]; listed as 32P) |
| --- | --- | --- | --- | --- | --- | --- | --- | --- | --- | --- | --- |
| O=[32P](O)(O)O [[^32P]PO4, ^32P monophosphate] | far greater levels of cell death | strongly and effectively inhibited tumor growth | no apparent detrimental effects | barely half of those produced by ^90Y | killed cells more efficiently than did ^90Y | significant, time-dependent double-strand DNA breakage | barely half of those produced by ^90Y | killed cells more efficiently than did ^90Y | no apparent detrimental effects | significantly inhibited | strongly and effectively inhibited tumor growth |
| [^32P]ATP | – | significant inhibition | – | – | – | – | – | – | – | – | – |
